2 molecules from patent US20260092246A1, “PLATFORM FOR ANTIMICROBIAL SUSCEPTIBILITY TESTING AND BACTERIAL IDENTIFICATION” (ASTRADX, INC., priority 2022, published 2026) can be followed below.

In the assay the test system is E. coli. In words: Antimicrobial susceptibility testing by dilution-temporal modeling (DTM) of growth in microwell plates with doubling dilutions of antibiotic. The settings on record: Escherichia coli. Type of assay: cell-based. From the text: “Categorical agreement” is a term of art in AST that describes whether an organism is susceptible or resistant by each of two methods, typically a reference method and an investigative method. The reference method is broth microdilution and comes from the CLSI (M100).
Each experiment involved a standard inoculum of bacteria grown at a concentration similar to what was recovered from the growth-detection step, which began with whole blood. The inoculum was automatically dispensed into the wells of a microwell plate. The wells contained doubling dilutions of standard antibiotics such as cefepime, meropenem, ciprofloxacin, and gentamicin (for gram-negative bacteria). A large number of wells enabled multiple replicates per condition, providing robustness to random dropouts or to growth variation.
In each experiment, the growth and color of each well was monitored for growth by an automated imager. Serial images for each “bug-drug” combination were combined to create a unified picture of bacterial growth for each antibiotic, measure MICs, and determine any correction factors necessary to maximize S/I/R categorical agreement with reference MICs. […]

Read-outs that look alike come from different tables or passages of the source.

`C[C@@H](O)[C@H]1C(=O)N2C(C(=O)O)=C(S[C@@H]3CN[C@H](C(=O)N(C)C)C3)[C@H](C)[C@H]12` [meropenem]: the MIC (read-out: MIC by the disclosed method (concentration at which fall in growth is visible)) was 0.5 µg/mL. For `CO/N=C(\C(=O)N[C@@H]1C(=O)N2C(C(=O)[O-])=C(C[N+]3(C)CCCC3)CS[C@H]12)c1csc(N)n1` [cefepime], the MIC (cefepime-resistant strain of E. coli, FIG. 6B, within a single doubling dilution of reference-method MIC, read-out: MIC by the disclosed method (concentration at which growth falls off)) was 16 µg/mL.
